Experimental data from ChEMBL document CHEMBL1149806, “Synthesis and antiproliferative activities of isoindigo and azaisoindigo derivatives” (Eur J Med Chem, 2008).

What was measured:
HL-60 = assay: Antiproliferative activity against human HL60 cells at 10 uM after 72 hrs by MTS test; format: functional; conditions: HL-60, 72 h
KB [1] = assay: Antiproliferative activity against human KB cells at 10 uM after 72 hrs by MTS test; format: functional
K562 = assay: Antiproliferative activity against human K562 cells at 10 uM after 72 hrs by MTS test; format: functional; conditions: K562, 72 h
KB [2] = assay: Antiproliferative activity against human KB cells after 72 hrs by MTS test; format: functional, cell-based
KB [3] = assay: Antiproliferative activity against human KB cells at 0.25 nM after 72 hrs by MTS test; format: functional

IC50 (KB [2]) [µM]	SMILES	inhibition at 10 µM (HL-60) [%]	inhibition at 10 µM (KB [1]) [%]	inhibition at 10 µM (K562) [%]	inhibition at 0.00025 µM (KB [3]) [%]
–	CC(=O)OC[C@H]1O[C@@H](N2C(=O)/C(=C3/C(=O)Nc4ccc(OC(F)(F)F)cc43)c3ccccc32)[C@H](OC(C)=O)[C@@H](OC(C)=O)[C@@H]1OC(C)=O	4	0	3	–
1.6	O=C1Nc2ccccc2/C1=C1\C(=O)Nc2ccccc21 [ISOINDIGO]	53	92	64	–
–	CC(=O)O[C@@]12CO[C@@H]1C[C@H](O)[C@@]1(C)C(=O)[C@H](O)C3=C(C)[C@@H](OC(=O)[C@H](O)[C@@H](NC(=O)OC(C)(C)C)c4ccccc4)C[C@@](O)([C@@H](OC(=O)c4ccccc4)[C@H]21)C3(C)C [DOCETAXEL]	46	–	32	71
